Assay: wn = mass fraction of the nth substance listed
Settings: Fluid (supercritical or subcritical phases), isochoric method, w1 = 0.5001

FC(F)C(F)(F)F [pentafluoroethane] + FCF
Settings | mass density [kg/m3]
348 K, 6505 kPa | 761.1
348 K, 9225 kPa | 859.2
348 K, 14528 kPa | 944
349 K, 5380 kPa | 475.9
349 K, 6732 kPa | 761
349 K, 9535 kPa | 859.1
349 K, 14929 kPa | 943.9
350 K, 5486 kPa | 475.9
350 K, 5543 kPa | 525.9
350 K, 5720 kPa | 615
350 K, 6957 kPa | 761
350 K, 9844 kPa | 859
350 K, 15331 kPa | 943.8
351 K, 5591 kPa | 475.9
351 K, 5661 kPa | 525.9
351 K, 5866 kPa | 615
351 K, 7184 kPa | 760.9
351 K, 10153 kPa | 859
351 K, 15729 kPa | 943.7
352 K, 5697 kPa | 475.9
352 K, 5778 kPa | 525.9
352 K, 5877 kPa | 571.5
352 K, 6013 kPa | 615
352 K, 7411 kPa | 760.8
352 K, 10462 kPa | 858.9
352 K, 16128 kPa | 943.6
353 K, 5802 kPa | 475.9
353 K, 5898 kPa | 525.9
353 K, 6010 kPa | 571.5
353 K, 6163 kPa | 615
353 K, 7640 kPa | 760.8
353 K, 10771 kPa | 858.8
353 K, 16529 kPa | 943.5
354 K, 5907 kPa | 475.9
354 K, 6017 kPa | 525.8
354 K, 6144 kPa | 571.4
354 K, 6312 kPa | 614.9
354 K, 7867 kPa | 760.7
354 K, 11082 kPa | 858.7
354 K, 16929 kPa | 943.4
355 K, 6013 kPa | 475.9
355 K, 6136 kPa | 525.8
355 K, 6277 kPa | 571.4
355 K, 6460 kPa | 614.9
355 K, 8099 kPa | 760.7
355 K, 11393 kPa | 858.7
355 K, 17330 kPa | 943.3
356 K, 6119 kPa | 475.9
356 K, 6256 kPa | 525.8
356 K, 6409 kPa | 571.4
356 K, 6610 kPa | 614.9
356 K, 8331 kPa | 760.6
356 K, 11703 kPa | 858.6
356 K, 17728 kPa | 943.3
357 K, 6227 kPa | 475.9
357 K, 6375 kPa | 525.8
357 K, 6544 kPa | 571.4
357 K, 6762 kPa | 614.8
357 K, 8563 kPa | 760.6
357 K, 12015 kPa | 858.5
357 K, 18129 kPa | 943.2
358 K, 6332 kPa | 475.9
358 K, 6496 kPa | 525.8
358 K, 6679 kPa | 571.3
358 K, 6913 kPa | 614.8
358 K, 8795 kPa | 760.5
358 K, 12328 kPa | 858.4
358 K, 18529 kPa | 943.1
359 K, 6438 kPa | 475.9
359 K, 6616 kPa | 525.8
359 K, 6814 kPa | 571.3
359 K, 7064 kPa | 614.8
359 K, 9028 kPa | 760.4
359 K, 12639 kPa | 858.4
359 K, 18928 kPa | 943
360 K, 6544 kPa | 475.9
360 K, 6737 kPa | 525.8
360 K, 6948 kPa | 571.3
360 K, 7219 kPa | 614.7
360 K, 9258 kPa | 760.4
360 K, 12952 kPa | 858.3
361 K, 6650 kPa | 475.8
361 K, 6858 kPa | 525.7
361 K, 7085 kPa | 571.3
361 K, 7368 kPa | 614.7
361 K, 9493 kPa | 760.3
361 K, 13265 kPa | 858.2
362 K, 6758 kPa | 475.8
362 K, 6980 kPa | 525.7
362 K, 7222 kPa | 571.2
362 K, 7523 kPa | 614.7
362 K, 9726 kPa | 760.3
362 K, 13581 kPa | 858.1
363 K, 6864 kPa | 475.8
363 K, 7101 kPa | 525.7
363 K, 7357 kPa | 571.2
363 K, 7676 kPa | 614.6
363 K, 9958 kPa | 760.2

— the NIST ThermoML archive (doi:10.1021/je0501843)
